Data from US8445006B2, “Biomolecular coating for implants” (Georgia Tech Research Corporation, priority 2006, dated 2013).

How the values were obtained:
[1] = tested on: bone marrow stromal cells; test: Alkaline phosphatase biochemical activity assay; assay type: cell-based, rat
Procedure: Primary bone marrow stromal cells were harvested from the femora of young adult male Wistar rats in accordance with an IACUC-approved protocol. After excision, hindleg femora and tibiae were cleared of soft tissue and rinsed in growth medium (α-minimal essential medium supplemented with 10% fetal bovine serum, 1% penicillin-streptomycin, and 0.3 μg/ml amphotericin B). The ends of the long bones were then removed and the marrow space was flushed with culture medium (3-5 ml), using a syringe with an 18-gauge needle. Marrow isolates were pooled, centrifuged, resuspended in growth medium, and seeded for adhesion-dependent selection on tissue culture polystyrene dishes. Non-adherent hematopoietic cells were removed during subsequent medium exchanges, which occurred every other day. Cells were subcultured every two days according to standard techniques. For in vitro osteogenic assays, cells were seeded at 10,000 cells/cm^2 in growth medium. […]
ALP activity was quantified at 7 days in culture using a modification of the Sodek and Berkman method. […] After sonication and centrifugation, the protein concentration was quantified using a Pierce Micro BCA protein assay kit. […] After a 60 min incubation at 37° C., the fluorescence was read at an excitation of 360 nm and an emission of 465 nm on an HTS 7000 Plus BioAssay Reader (Perkin Elmer). […]

MC3T3-E1 cells = test: Centrifugation cell adhesion assay on ligand-tethered SAMs; assay type: cell-based, murine; settings: for ADH50 (ligand density required for half-maximal adhesion): ligand tethered to SAMs, MC3T3-E1
Procedure: MC3T3-E1 murine immature osteoblast-like cells (Riken Cell Bank, Hirosawa, Japan) were used because of their expression of multiple integrins, including alpha5beta1, alpha2beta1, and alphaVbeta3. Cells were maintained at 37° C. in α-MEM supplemented with 10% FBS and 1% penicillin-streptomycin and passaged every 2-3 days via standard culture techniques.
Self-assembled monolayers (SAMs) of alkanethiols on gold were used to present well-defined, ordered surfaces with anchoring groups within a non-fouling background. Tri(ethylene glycol)-terminated alkanethiol (HS—(CH2)11—(OCH2CH2)3—OH; EG3) and carboxylic acid-terminated alkanethiol (HS—(CH2)11—(OCH2CH2)6—OCH2COOH; EG6-COOH) were previously synthesized and characterized. Gold-coated substrates were prepared by sequential deposition of titanium (100 Å) and gold (200 Å) films via an electron beam evaporator (Thermionics Laboratories, Hayward, Calif., 2×10^−6 Torr, 1 A/s) onto clean 6-well plate lids or glass coverslips. Mixed SAM surfaces were prepared on substrates by immersing in a 1.0 mM mixed solution of EG3/EG6-COOH thiols (4 h). Peptide ligands were tethered using standard peptide chemistry. Briefly, following washing in ethanol and ultrapure H2O, SAMs were incubated in 2.0 mM EDC and 5.0 mM NHS in 0.1 M 2-(N-morpho)-ethanesulfonic acid and 0.5 M NaCl (pH 6.0), and subsequently immersed in a 20 mM solution of 2-mercaptoethanol in deionized H2O. Adhesive ligands in PBS were then incubated on the activated supports for 30 min and the unreacted surface NHS esters were then quenched in 20 mM glycine. Finally, the surfaces were blocked in 1% heat-denatured bovine serum albumin (BSA) and then incubated overnight in DPBS to reduce nonspecific protein adsorption.
A modification of a centrifugation assay was used to apply controlled detachment forces to cells adhering to engineered surfaces. Multi-wells of engineered surfaces were created on gold-coated polystyrene plate lids using silicone gaskets (Grace Bio-Labs, Bend, Oreg.). Mixed SAMs were assembled and ligands tethered at varying densities. MC3T3-E1 cells were labeled with […] calcein-AM, a membrane-permeable green fluorescent dye, in 2 mM dextrose-DPBS for 30 min and resuspended in α-MEM with 10% FBS. Cells were seeded onto the surfaces at 200 cells/mm^2, and allowed to attach for 1 h at 37° C. For blocking antibody experiments, cells were incubated in the presence of function-perturbing antibodies (10 μg/ml) for 10 min with gentle agitation prior to cell seeding. Before centrifugation, cell images were taken using a Nikon TE-300 fluorescence microscope and Spot RT digital camera. Wells were then filled completely with dextrose-PBS, sealed, inverted, and centrifuged for 5 min at a prescribed speed on a Beckman Allegra 6 centrifuge (GH 3.8 rotor) to apply normal detachment forces. Media was then gently aspirated from the wells, and wells were refilled for post-spin image collection. Post/pre-spin cell ratios were determined by image analysis, and this adhesive fraction was plotted against ligand surface density to obtain cell adhesion profiles.

osteoblastic cells = test: In vitro bioresistance and adhesive capacity of poly(OEGMA) brushes on titanium; assay type: cell-based; settings: serum-containing media, osteoblastic cells 1 h
Procedure: Surfaces were incubated in serum-containing media for various times and subsequently challenged with osteoblastic cells for 1 h.

FAK = FAK phosphorylation on ligand-tethered brush surfaces with integrin blocking antibodies; assay type: cell-based, rat; settings: for effect of integrin blocking antibodies on FAK phosphorylation: anti-α5 and anti-β3 antibodies
Procedure: Cells were detached and gently agitated in serum-free suspension for 45 min to reduce background. Cells were then seeded at 200 cells/mm^2 serum-free for 1 h. Cells were lysed in RIPA buffer (1% Triton X-100, 1% sodium deoxycholate, 0.1% SDS, 150 mM NaCl, 150 mM Tris-HCl (pH 7.2), 350 μg/ml PMSF, 10 μg/ml leupeptin, and 10 μg/ml aprotonin) for 20 min on ice. Samples were pipetted up and down 20 times and centrifuged at 8000 g for 10 min to shear DNA and isolate protein contents. Total protein was quantified using micro-BCA (Pierce). Equal amounts of protein were boiled for 10 min in Laemmli buffer and separated by SDS-PAGE on a 7% gel, transferred to nitrocellulose membranes, and blocked with Blotto (5% nonfat dry milk, 0.20% Tween-20) overnight at 4° C. Membranes were gently rocked in antibodies against FAK and specific phosphorylated FAK tyrosine residues (anti-total FAK at 1 μg/ml, anti-FAK pY397 at 0.35 μg/ml, anti-FAK pY576 at 0.5 μg/ml) for 1 h. After washing with TBS-Tween (20 mM Tris HCl pH 7.6, 137 mM NaCl, 0.1% Tween-20), secondary antibody (biotin-conjugated anti-rabbit IgG; 1:20,000) was added for 1 h, followed by alkaline phosphatase-conjugated anti-biotin antibody (1:10,000) in Blotto. Immunoreactivity was assessed by ECF fluorescent substrate. FAK bands were visualized by a Fuji Image Analyzer and phosphorylation levels normalized to total FAK.
FAK is an intracellular signaling molecule involved in integrin-mediated signal transduction and the osteogenic differentiation pathway. Phosphotyrosine-specific antibodies were used to examine the activation state of three important tyrosines in FAK: Y397 (autophosphorylation site), Y576 (essential for maximal kinase activity), and Y861 (major Src phosphorylation site) (FIG. 13C). […] These differences in integrin binding specificity and FAK activation modulate cell signaling pathways and higher order cellular activities.

[2] = maximum ligand density, normalized to unblocked controls
[3] = vs RGD-functionalized brushes and serum-exposed titanium

## FNIII7-10: monobiotinylated recombinant fibronectin fragment spanning the 7-10th type III repeats of fibronectin; α5β1 integrin ligand
[1]; tethered brushes vs RGD-functionalized surfaces
  alkaline phosphatase activity: higher alkaline phosphatase activity
MC3T3-E1 cells
  ADH50 (ligand density required for half-maximal adhesion): 70 fmol/cm^2
MC3T3-E1 cells; [2]
  adhesion with blocking antibodies against α5β1 integrin: reduced adhesion to background levels
  reduction of adhesion by antibodies against β3 integrin subunit: did not alter adhesion significantly
Osteoblastic cells
  cell adhesion on ligand-presenting poly(OEGMA) brushes: comparable to the unmodified titanium
FAK
  effect of integrin blocking antibodies on FAK phosphorylation: blocking antibodies against α5, but not β3, reduced the levels of phospho-Y397 and Y576
FAK; [3]
  FAK Y397 phosphorylation: higher phosphorylation levels
  FAK Y576 phosphorylation: higher phosphorylation levels

## GGYGGGPC(GPP)5GFOGER(GPP)5GPC [GFOGER peptide]
[1]; 7 days, adsorbed coating vs untreated titanium
  ALP activity: elevated levels of activation

## GRGDSPC [RGD peptide, linear RGD oligopeptide purchased from BACHEM; primarily supports αvβ3-mediated adhesion, reference compound]
MC3T3-E1 cells
  ADH50 (ligand density required for half-maximal adhesion): 2300 fmol/cm^2
MC3T3-E1 cells; [2]
  adhesion with blocking antibodies against α5β1 integrin: only slightly reduced adhesion
Osteoblastic cells
  cell adhesion on ligand-presenting poly(OEGMA) brushes: comparable to the unmodified titanium
FAK
  effect of integrin blocking antibodies on FAK phosphorylation: only the anti-β3 antibody reduced FAK phosphorylation
FAK; relative to FNIII7-10-tethered surface
  FAK Y861 phosphorylation: elevated
